How the values were obtained:
MDA-MB-231 = experiment: MTS assay, MDA-MB-231; format: cell-based; details: Homo sapiens, 72 hours, 1 Percent FBS
Description: (§1) Cells were maintained at 37° C., 5% CO2 in DMEM media supplemented with 1% fetal bovine serum, penicillin/streptomycin and fungizone (Invitrogen). Cells were seeded into 96-well tissue culture plates at 3000 per well and cultured at 37° C. for 18 hours. Test compounds were dissolved and diluted to 300× in DMSO then diluted 1:40 in DMEM. Cells were incubated with test compounds for 72 hours followed by incubation with tetrazolium compound (3-(4,5-dimethylthiazol-2-yl)-5-(3-carboxymethoxyphenyl)-2-(4-sulfophenyl)-2H-tetrazolium, inner salt; MTS) and the electron coupling reagent, phenazine methosulfate (PMS) for 4 hours. […] The ability of compounds to inhibit cell growth in this assay is correlated with the reduction of dehydrogenase enzyme activity found in metabolically active cells. The measurement of the absorbance of the formazan was assessed using a Victor (Perkin Elmer) microplate reader at 492 nm. The calculated IC50 value is the concentration of the test compound that causes a 50% decrease in the absorbance.

DLD-1 = experiment: MTS assay, DLD-1; format: cell-based; details: Homo sapiens, 72 hours, 1 Percent FBS
Description: as §1

SMILES: COc1ccc2cc(-c3ccnc(NC4CC(C)(C)N(C)C(C)(C)C4)n3)cc(N3CCOCC3)c2c1 [Compound 26, 4-(6-methoxy-4-morpholin-4-yl-2-naphthyl)-N-(1,2,2,6,6-pentamethylpiperidin-4-yl)pyrimidin-2-amine]
- inhibition at 10 µM (MDA-MB-231): 98%
- inhibition at 10 µM (DLD-1): 92%

SMILES: COc1ccc2cc(-c3ccnc(NC4CCN(C)CC4)n3)cc(N3CCOCC3)c2c1 [Compound 7, 4-(6-methoxy-4-morpholin-4-yl-2-naphthyl)-N-(1-methylpiperidin-4-yl)pyrimidin-2-amine]
- inhibition at 10 µM (MDA-MB-231): 62%
- inhibition at 10 µM (DLD-1): 68%

SMILES: CCN1CCCC(Nc2nccc(-c3cc(N4CCNCC4)c4cc(OC)ccc4c3)n2)C1 (stereo not drawn) [Compound 131, N-(1-ethylpiperidin-3-yl)-4-(6-methoxy-4-piperazin-1-yl-2-naphthyl)pyrimidin-2-amine]
- inhibition at 10 µM (MDA-MB-231): 97%
- inhibition at 10 µM (DLD-1): 92%

SMILES: COc1ccc2cc(-c3ccnc(NCC(C)(C)CN(C)C)n3)cc(N3CCOCC3)c2c1 [Compound 30, N′-[4-(6-methoxy-4-morpholin-4-yl-2-naphthyl)pyrimidin-2-yl]-N,N,2,2-tetramethylpropane-1,3-diamine]
- inhibition at 10 µM (MDA-MB-231): 78%
- inhibition at 10 µM (DLD-1): 63%

SMILES: COc1ccc2cc(-c3ccnc(NCCc4cccc(OC)c4OC)n3)cc(N3CCNCC3)c2c1 [Compound 129, N-[2-(2,3-dimethoxyphenyl)ethyl]-4-(6-methoxy-4-piperazin-1-yl-2-naphthyl)pyrimidin-2-amine]
- inhibition at 10 µM (MDA-MB-231): 99%
- inhibition at 10 µM (DLD-1): 97%

SMILES: CNc1nccc(-c2cc(NC(=O)CN3CCN(CCO)CC3)c3cc(OC)ccc3c2)n1 [Compound 38, 2-[4-(2-hydroxyethyl)piperazin-1-yl]-N-{7-methoxy-3-[2-(methylamino)pyrimidin-4-yl]-1-naphthyl}acetamide]
- inhibition at 10 µM (MDA-MB-231): 98%
- inhibition at 10 µM (DLD-1): 98%

SMILES: CNc1nccc(-c2cc(NC(=O)CN3CCN(c4ncncn4)CC3)c3cc(OC)ccc3c2)n1 [Compound 40, N-{7-methoxy-3-[2-(methylamino)pyrimidin-4-yl]-1-naphthyl}-2-[4-(1,3,5-triazin-2-yl)piperazin-1-yl]acetamide]
- inhibition at 10 µM (MDA-MB-231): 40%
- inhibition at 10 µM (DLD-1): 54%

SMILES: COc1ccc2cc(-c3ccnc(NCc4cccc(C(F)(F)F)c4)n3)cc(N3CCNCC3)c2c1 [Compound 127, 4-(6-methoxy-4-piperazin-1-yl-2-naphthyl)-N-[3-(trifluoromethyl)benzyl] pyrimidin-2-amine]
- inhibition at 10 µM (MDA-MB-231): 99%
- inhibition at 10 µM (DLD-1): 97%

SMILES: CNc1nccc(-c2cc(NC(=O)CN3CCN(CCn4cccc4)CC3)c3cc(OC)ccc3c2)n1 [Compound 82, N-{7-methoxy-3-[2-(methylamino)pyrimidin-4-yl]-1-naphthyl}-2-{4-[2-(1H-pyrrol-1-yl)ethyl]piperazin-1-yl}acetamide]
- inhibition at 10 µM (MDA-MB-231): 80%
- inhibition at 10 µM (DLD-1): 96%

SMILES: CNc1nccc(-c2cc(NC(=O)CN3CCN(CC(=O)N(C)C)CC3)c3cc(OC)ccc3c2)n1 [Compound 52, 2-{4-[2-({7-methoxy-3-[2-(methylamino)pyrimidin-4-yl]-1-naphthyl}amino)-2-oxoethyl]piperazin-1-yl}-N,N-dimethylacetamide]
- inhibition at 10 µM (MDA-MB-231): 96%
- inhibition at 10 µM (DLD-1): 99%

SMILES: CNc1nccc(-c2cc(NC(=O)CN3CCN(CC4CCN(C)CC4)CC3)c3cc(OC)ccc3c2)n1 [Compound 41, N-{7-methoxy-3-[2-(methylamino)pyrimidin-4-yl]-1-naphthyl}-2-{4-[(l-methylpiperidin-4-yl)methyl]piperazin-1-yl}acetamide]
- inhibition at 10 µM (MDA-MB-231): 71%
- inhibition at 10 µM (DLD-1): 66%

SMILES: COCCNc1nccc(-c2cc(N3CCOCC3)c3cc(OC)ccc3c2)n1 [Compound 23, N-(2-methoxyethyl)-4-(6-methoxy-4-morpholin-4-yl-2-naphthyl)pyrimidin-2-amine]
- inhibition at 10 µM (MDA-MB-231): 91%
- inhibition at 10 µM (DLD-1): 98%

SMILES: COc1ccc2cc(-c3ccnc(NCc4ccccc4C)n3)cc(N3CCNCC3)c2c1 [Compound 128, 4-(6-methoxy-4-piperazin-1-yl-2-naphthyl)-N-(2-methylbenzyl)pyrimidin-2-amine]
- inhibition at 10 µM (MDA-MB-231): 98%
- inhibition at 10 µM (DLD-1): 97%

SMILES: CNc1nccc(-c2cc(NC3CCN(c4ncccc4C(=O)OC)CC3)c3cc(OC)ccc3c2)n1 [Compound 168, methyl 2-[4-({7-methoxy-3-[2-(methylamino)pyrimidin-4-yl]-1-naphthyl}amino)piperidin-1-yl]nicotinate]
- inhibition at 10 µM (MDA-MB-231): 99%
- inhibition at 10 µM (DLD-1): 98%

SMILES: COc1ccc2cc(-c3ccnc(NCCN(C)C)n3)cc(N3CCNCC3)c2c1 [Compound 125, N′-[4-(6-methoxy-4-piperazin-1-yl-2-naphthyl)pyrimidin-2-yl]-N,N-dimethylethane-1,2-diamine]
- inhibition at 10 µM (MDA-MB-231): 96%
- inhibition at 10 µM (DLD-1): 96%

SMILES: COc1ccc2cc(-c3ccnc(NCCN(C)C)n3)cc(NC(=O)OC(C)(C)C)c2c1 [Compound 86, tert-butyl [3-(2-{[2-(dimethylamino)ethyl]amino}pyrimidin-4-yl)-7-methoxy-1-naphthyl]carbamate]
- inhibition at 10 µM (MDA-MB-231): 67%
- inhibition at 10 µM (DLD-1): 31%

SMILES: COc1ccc2cc(-c3ccnc(NCc4ccc(OC)c(OC)c4)n3)cc(N3CCNCC3)c2c1 [Compound 121, N-(3,4-dimethoxybenzyl)-4-(6-methoxy-4-piperazin-1-yl-2-naphthyl)pyrimidin-2-amine]
- inhibition at 10 µM (MDA-MB-231): 99%
- inhibition at 10 µM (DLD-1): 97%

SMILES: COc1ccc2cc(-c3ccnc(NCC(C)(C)CN(C)C)n3)cc(N3CCNCC3)c2c1 [Compound 136, N′-[4-(6-methoxy-4-piperazin-1-yl-2-naphthyl)pyrimidin-2-yl]-N,N,2,2-tetramethylpropane-1,3-diamine]
- inhibition at 10 µM (MDA-MB-231): 95%
- inhibition at 10 µM (DLD-1): 97%

SMILES: COc1ccc2cc(-c3ccnc(NCC(C)(C)CN(C)C)n3)cc(NC(=O)OC(C)(C)C)c2c1 [Compound 105, tert-butyl [3-(2-{[3-(dimethylamino)-2,2-dimethylpropyl]amino}pyrimidin-4-yl)-7-methoxy-1-naphthyl]carbamate]
- inhibition at 10 µM (MDA-MB-231): 89%
- inhibition at 10 µM (DLD-1): 84%

SMILES: COCCNc1nccc(-c2cc(N3CCNCC3)c3cc(OC)ccc3c2)n1 [Compound 119, N-(2-methoxyethyl)-4-(6-methoxy-4-piperazin-1-yl-2-naphthyl)pyrimidin-2-amine]
- inhibition at 10 µM (MDA-MB-231): 93%
- inhibition at 10 µM (DLD-1): 94%

SMILES: CNc1nccc(-c2cc(NC(=O)CNCCOC(C)C)c3cc(OC)ccc3c2)n1 [Compound 53, N~2~-(2-isopropoxyethyl)-N-{7-methoxy-3-[2-(methylamino)pyrimidin-4-yl]-1-naphthyl}glycinamide]
- inhibition at 10 µM (MDA-MB-231): 81%
- inhibition at 10 µM (DLD-1): 92%

SMILES: COc1ccc2cc(-c3ccnc(NC4CC(C)(C)N(C)C(C)(C)C4)n3)cc(NC(=O)OC(C)(C)C)c2c1 [Compound 103, tert-butyl (7-methoxy-3-{2-[(1,2,2,6,6-pentamethylpiperidin-4-yl)amino]pyrimidin-4-yl}-1-naphthyl)carbamate]
- inhibition at 10 µM (MDA-MB-231): 89%
- inhibition at 10 µM (DLD-1): 74%

SMILES: COc1ccc2cc(-c3ccnc(NCCc4cccnc4)n3)cc(NC(=O)OC(C)(C)C)c2c1 [Compound 98, tert-butyl (7-methoxy-3-{2-[(2-pyridin-3-ylethyl)amino]pyrimidin-4-yl}-1-naphthyl)carbamate]
- inhibition at 10 µM (MDA-MB-231): 86%
- inhibition at 10 µM (DLD-1): 98%

SMILES: COc1ccc2cc(-c3ccnc(NCCc4cccc(OC)c4OC)n3)cc(NC(=O)OC(C)(C)C)c2c1 [Compound 94, tert-butyl [3-(2-{[2-(2,3-dimethoxyphenyl)ethyl]amino}pyrimidin-4-yl)-7-methoxy-1-naphthyl]carbamate]
- inhibition at 10 µM (MDA-MB-231): 35%
- inhibition at 10 µM (DLD-1): 37%

SMILES: COc1ccc2cc(-c3ccnc(NC4CCN(Cc5ccccc5)CC4)n3)cc(N3CCNCC3)c2c1 [Compound 117, N-(1-benzylpiperidin-4-yl)-4-(6-methoxy-4-piperazin-1-yl-2-naphthyl)pyrimidin-2-amine]
- inhibition at 10 µM (MDA-MB-231): 97%
- inhibition at 10 µM (DLD-1): 97%

SMILES: COc1ccc2cc(-c3ccnc(NC4CCN(C)CC4)n3)cc(N3CCNCC3)c2c1 [Compound 116, 4-(6-methoxy-4-piperazin-1-yl-2-naphthyl)-N-(1-methylpiperidin-4-yl)pyrimidin-2-amine]
- inhibition at 10 µM (MDA-MB-231): 97%
- inhibition at 10 µM (DLD-1): 97%

SMILES: CNc1nccc(-c2cc(NC(=O)CN3CCN(CC(=O)N(C)c4ccccc4)CC3)c3cc(OC)ccc3c2)n1 [Compound 79, 2-{4-[2-({7-methoxy-3-[2-(methylamino)pyrimidin-4-yl]-1-naphthyl}amino)-2-oxoethyl]piperazin-1-yl}-N-methyl-N-phenylacetamide]
- inhibition at 10 µM (MDA-MB-231): 99%
- inhibition at 10 µM (DLD-1): 98%

SMILES: COc1cc(CCNc2nccc(-c3cc(N4CCNCC4)c4cc(OC)ccc4c3)n2)cc(OC)c1 [Compound 132, N-[2-(3,5-dimethoxyphenyl)ethyl]-4-(6-methoxy-4-piperazin-1-yl-2-naphthyl)pyrimidin-2-amine]
- inhibition at 10 µM (MDA-MB-231): 98%
- inhibition at 10 µM (DLD-1): 97%

SMILES: COc1ccc2cc(-c3ccnc(NCc4cncn4C)n3)cc(NC(=O)OC(C)(C)C)c2c1 [Compound 93, tert-butyl [7-methoxy-3-(2-{[(1-methyl-1H-imidazol-5-yl)methyl]amino}pyrimidin-4-yl)-1-naphthyl]carbamate]
- inhibition at 10 µM (MDA-MB-231): 72%
- inhibition at 10 µM (DLD-1): 96%

SMILES: CNc1nccc(-c2cc(NC3CCN(c4ccc5ccccc5n4)CC3)c3cc(OC)ccc3c2)n1 [Compound 154, 4-{6-methoxy-4-[(1-quinolin-2-ylpiperidin-4-yl)amino]-2-naphthyl}-N-methylpyrimidin-2-amine]
- inhibition at 10 µM (MDA-MB-231): 41%
- inhibition at 10 µM (DLD-1): 82%

— patent US8173808B2, “Substituted naphthalenyl-pyrimidine compounds” (ArQule, Inc., priority 2009, dated 2012)
